According to patent US20090060873A1, “Novel synthetic triterpenoids and methods of use in the treatment and prevention of multiple scleroris” (Reata Pharmaceuticals, Inc., priority 2007, published 2009):
Entries after “also recorded” stand apart in the source; their conditions may differ.

Columns and labels:
heme oxygenase-1 (HO-1) = conditions: nanomolar concentrations; cited from earlier work
[1] = Tissue distribution of CDDO-Me in cynomolgus monkeys after 3 days of oral dosing; assay type: in vivo; conditions: cynomolgus monkey, about 3 h after last dose, sesame oil vehicle
Protocol: Experiments using CDDO-Me (RTA-402) were also conducted on 1 male and 1 female cynomolgus monkey (origin: Vietnam) between the ages of 2 and 3 years and weighing approximately 1.7 kg. Each received the test article (CDDO-Me in sesame oil) at 75 mg/kg/day via oral gavage administered at a volume of 5 mL/kg on Days 1, 2, and 3. Individual doses were based on the most recently obtained body weights. Blood samples were collected from the femoral artery/vein for determination of the plasma concentrations of the test article at 0.5, 1.5, 3, and 12 hours after dosing on Days 1 and 2 and at 0.5, 1.5, and 3 hours after dosing (±0.5 hour) on Day 3.
At the termination of the study (approximately three hours after dosing on Day 3), all animals were euthanized and tissues collected. Samples (approximately 1 g or greater) of the adipose tissue, brain, colon, cheek pouch (buccal mucosa), heart, ileum, kidney, liver, lung, mammary glands, ovaries, pancreas, prostate, and bone marrow from the femur (as much as possible) were collected and frozen at approximately −20° C. for analysis for the presence of the test article. All other tissues and organs were discarded.
In Table 1 nM is ng/mL×1000/505.8, where 505.8 is the molecular weight of RTA-402 using the approximation that the density of the tissue is that of water.

MOG-induced EAE [2] = experiment: MOG-induced rapidly progressive EAE model, treatment, clinical score; assay type: in vivo, mouse; conditions: 100 nmol (~2.8 mg/kg) IP, Q2Dx4, in 7.5% PBST, n=2/group
MOG-induced EAE [3] = experiment: Prophylactic treatment in MOG EAE model; assay type: in vivo, mouse; conditions: 100 nanomoles IP, pre and/or post MOG (Day -1, 1, 3, 5); FIGS. 23, 24
Protocol: FIGS. 23 & 24—Prophylactic Treatment of CDDO-Me (RTA 402) or CDDO-TFEA (RTA-404) Delays Induction of Symptoms in Model of Multiple Sclerosis.
In prophylactic studies (FIGS. 23-24) the following design was used:
Day-1: 100 nanomoles IP RTA 404 (2.9 mg/kg) or RTA 402 (2.5 mg/kg) in pre and pre/post groups
Day 1: 100 nanomoles IP RTA 404 (2.9 mg/kg) or RTA 402 (2.5 mg/kg) in post and pre/post groups
Day 3: 100 nanomoles IP RTA 404 (2.9 mg/kg) or RTA 402 (2.5 mg/kg) in post and pre/post groups
Day 5: 100 nanomoles IP RTA 404 (2.9 mg/kg) or RTA 402 (2.5 mg/kg) in post and pre/post groups

NF-κB = NF-κB activated by TNF, IL-1β, phorbol ester, okadaic acid, hydrogen peroxide, LPS, cigarette smoke; cited from earlier work
[4] = Brain levels of triterpenoids in mice fed compound in diet (LC/MS)

## CC1(C)CC[C@]2(C(=O)n3ccnc3)CC[C@]3(C)[C@H](C(=O)C=C4[C@@]5(C)C=C(C#N)C(=O)C(C)(C)[C@@H]5CC[C@]43C)[C@@H]2C1 [CDDO-Im]
Heme oxygenase-1 (HO-1)
  expression of HO-1: rapidly increase the expression of the cytoprotective heme oxygenase-1 (HO-1) enzyme

## CC1(C)CC[C@]2(C(=O)O)CC[C@]3(C)[C@H](C(=O)C=C4[C@@]5(C)C=C(C#N)C(=O)C(C)(C)[C@@H]5CC[C@]43C)[C@@H]2C1 [CDDO, 2-cyano-3,12-dioxooleane-1,9(11)-dien-28-oic acid]
Heme oxygenase-1 (HO-1)
  expression of HO-1: rapidly increase the expression of the cytoprotective heme oxygenase-1 (HO-1) enzyme

## COC(=O)[C@]12CCC(C)(C)C[C@H]1[C@H]1C(=O)C=C3[C@@]4(C)C=C(C#N)C(=O)C(C)(C)[C@@H]4CC[C@@]3(C)[C@]1(C)CC2 [CDDO-Me]
[1]
  average tissue concentration, Breast: 4,389 nM
  average tissue concentration, Colon: 4,467 nM
  average tissue concentration, Kidney: 1,603 nM
  average tissue concentration, Liver: 926 nM
  average tissue concentration, Lung: 4,992 nM
  average tissue concentration, Ovary: 2,115 nM
  average tissue concentration, Prostate: 4,446 nM
  tissue concentration, Brain (range of results obtained): 215 to 447 nM
MOG-induced EAE [2]
  recovery of clinical score (CS 0 no symptoms, 6 quadriplegia): induce full recovery of mice
MOG-induced EAE [2]; listed as RTA 402
  recovery of clinical score (CS 0 no symptoms, 6 quadriplegia): induce complete recovery of symptoms after initial relapse
MOG-induced EAE [2]; listed as RTA-402
  recovery of clinical score (CS 0 no symptoms, 6 quadriplegia): Induce Full Recovery of Mice; also recorded: Treated Animals Recover
MOG-induced EAE [3]
  delay of development of clinical scores: modestly delayed
NF-κB
  inhibition of constitutive and inducible NF-κB: potently inhibits both constitutive and inducible NF-κB
[4]; fed very low levels in diet for one week (100 mg/kg diet), FIG. 1
  level of compound in mouse brain: able to reach appreciable levels in the brain; also recorded: Detectable in the Brains of Mice

## CNC(=O)[C@]12CCC(C)(C)C[C@H]1C1C(=O)C=C3[C@@]4(C)C=C(C#N)C(=O)C(C)(C)[C@@H]4CC[C@@]3(C)[C@]1(C)CC2 (some centres unmarked) [CDDO-MA]
[4]; 800 mg/kg diet, 2 or 4 days, FIG. 2
  concentration in brains of mice: Significant Concentrations
